Measurements published in patent publication US11685746B2, “Heteroaryl compounds for treating Huntington's disease” (PTC THERAPEUTICS, INC., priority 2018, dated 2023).

tested on: Endogenous Huntingtin Protein; test: Endogenous Huntingtin Protein Assay (MSD plates, MW1 or MAB2166 capture antibody); assay type: cell-based; settings: Table 1
Procedure, shortened: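 Endogenous huntingtin was captured overnight at 4° C on wells coated with 1 μg/mL MW1 (polyglutamine-specific) or MAB2166. Detection used rabbit #5656S and then goat anti-rabbit SULFO-TAG, both at 0.25 μg/mL and 1 h at room temperature. Plates were imaged on the MSD system in read buffer T.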

| Compound | IC50 [nM] |
| --- | --- |
| C[C@@H]1C[C@@H](Oc2nc3sc(-c4ncc(-c5cn[nH]c5)c5cn[nH]c45)nc3s2)CCN1 [Compound 74, 7-(5-{[(2R,4S)-2-methylpiperidin-4-yl]oxy}[1,3]thiazolo[5,4-d][1,3]thiazol-2-yl)-4-(1H-pyrazol-4-yl)-1H-pyrazolo[3,4-c]pyridine] | ≤ 100 |
| Cc1cn2cc(-c3nc4sc(C5=CCNCC5)nc4s3)nc2c(C)n1 [Compound 41, 6,8-dimethyl-2-[5-(1,2,3,6-tetrahydropyridin-4-yl)[1,3]thiazolo[5,4-d][1,3]thiazol-2-yl]imidazo[1,2-a]pyrazine] | 100 to 500 |
| C[C@H]1C[C@@H](N(C)c2nc3sc(-c4cnc(-c5cn[nH]c5)cn4)nc3s2)CCN1 [Compound 99, N-methyl-N-[(2S,4S)-2-methylpiperidin-4-yl]-5-[5-(1H-pyrazol-4-yl)pyrazin-2-yl][1,3]thiazolo[5,4-d][1,3]thiazol-2-amine] | 500 to 1000 |
| CC1CC(N(C)c2nc3sc(-c4ccc(Cl)c5cc[nH]c45)nc3s2)CCN1C (stereo not drawn) [Compound 119, 5-(4-chloro-1H-indol-7-yl)-N-(1,2-dimethylpiperidin-4-yl)-N-methyl[1,3]thiazolo[5,4-d][1,3]thiazol-2-amine] | 1000 to 3000 |
| CN(c1nc2sc(-c3cnc(-c4cn[nH]c4)cn3)nc2s1)[C@H]1C[C@]2(C)CC[C@](C)(C1)N2 [Compound 142, N-[(1R,3s,5S)-1,5-dimethyl-8-azabicyclo[3.2.1]octan-3-yl]-N-methyl-5-[5-(1H-pyrazol-4-yl)pyrazin-2-yl][1,3]thiazolo[5,4-d][1,3]thiazol-2-amine] | ≤ 100 |
| CN(c1nc2sc(-n3ccc(-c4cn[nH]c4)cc3=O)nc2s1)[C@H]1C[C@]2(C)CC[C@](C)(C1)N2 [Compound 146, 1-(5-{[(1R,3s,5S)-1,5-dimethyl-8-azabicyclo[3.2.1]octan-3-yl](methyl)amino}[1,3]thiazolo[5,4-d][1,3]thiazol-2-yl)-4-(1H-pyrazol-4-yl)pyridin-2(1H)-one] | ≤ 100 |
| Oc1cc(-c2cn[nH]c2)cnc1-c1nc2sc(N3CCC34CCNCC4)nc2s1 [Compound 189, 2-[5-(1,7-diazaspiro[3.5]nonan-1-yl)[1,3]thiazolo[5,4-d][1,3]thiazol-2-yl]-5-(1H-pyrazol-4-yl)pyridin-3-ol] | 100 to 500 |
| CN(c1nc2sc(-c3ncc(-c4ccnnc4)cc3O)nc2s1)C1CCNCC1 [Compound 225, 2-{5-[methyl(piperidin-4-yl)amino][1,3]thiazolo[5,4-d][1,3]thiazol-2-yl}-5-(pyridazin-4-yl)pyridin-3-ol] | ≤ 100 |
| c1cc2c(-c3cn[nH]c3)cnc(-c3nc4sc(N5CCC56CCCNC6)nc4s3)c2[nH]1 (stereo not drawn) [Compound 134, 7-[5-(1,6-diazaspiro[3.5]nonan-1-yl)[1,3]thiazolo[5,4-d][1,3]thiazol-2-yl]-4-(1H-pyrazol-4-yl)-1H-pyrrolo[2,3-c]pyridine] | ≤ 100 |
| CC1CC(N(C)c2nc3sc(-c4ccc(-c5cn[nH]c5)nc4)nc3s2)CCN1C (stereo not drawn) [Compound 127, N-(1,2-dimethylpiperidin-4-yl)-N-methyl-5-[6-(1H-pyrazol-4-yl)pyridin-3-yl][1,3]thiazolo[5,4-d][1,3]thiazol-2-amine] | 1000 to 3000 |
| CC1CC(N(C)c2nc3sc(-c4ncc(-c5cn[nH]c5)c5[nH]cnc45)nc3s2)CCN1C (stereo not drawn) [Compound 115, N-(1,2-dimethylpiperidin-4-yl)-N-methyl-5-[7-(1H-pyrazol-4-yl)-1H-imidazo[4,5-c]pyridin-4-yl][1,3]thiazolo[5,4-d][1,3]thiazol-2-amine] | ≤ 100 |
| CN(c1nc2sc(-c3ccc(-c4cn[nH]c4)c4cn[nH]c34)nc2s1)C1CC(C)(C)NC(C)(C)C1 [Compound 107, N-methyl-5-[4-(1H-pyrazol-4-yl)-1H-indazol-7-yl]-N-(2,2,6,6-tetramethylpiperidin-4-yl)[1,3]thiazolo[5,4-d][1,3]thiazol-2-amine] | ≤ 100 |
| Oc1cc(-c2cn[nH]c2)cnc1-c1nc2sc(N3CC4(CCNCC4)C3)nc2s1 [Compound 209, 2-[5-(2,7-diazaspiro[3.5]nonan-2-yl)[1,3]thiazolo[5,4-d][1,3]thiazol-2-yl]-5-(1H-pyrazol-4-yl)pyridin-3-ol] | ≤ 100 |
| Cc1cn2nc(-c3nc4sc(C5CCNCC5)nc4s3)cc(C)c2n1 [Compound 12, 2,8-dimethyl-6-[5-(piperidin-4-yl)[1,3]thiazolo[5,4-d][1,3]thiazol-2-yl]imidazo[1,2-b]pyridazine] | 100 to 500 |
| CN(c1nc2sc(-n3ccc(-c4cn[nH]c4)cc3=O)nc2s1)[C@@H]1CCCNC1 [Compound 155, 1-(5-{methyl[(3R)-piperidin-3-yl]amino}[1,3]thiazolo[5,4-d][1,3]thiazol-2-yl)-4-(1H-pyrazol-4-yl)pyridin-2(1H)-one] | 100 to 500 |
| Oc1cc(-c2cn[nH]c2)ccc1-c1nc2sc(NC3CCNCC3)nc2s1 [Compound 22, 2-[5-(piperidin-4-ylamino)[1,3]thiazolo[5,4-d][1,3]thiazol-2-yl]-5-(1H-pyrazol-4-yl)phenol] | ≤ 100 |
| CCn1cc(-c2cnc(-c3nc4sc(N(C)C5CCNCC5)nc4s3)c(O)c2)cn1 [Compound 52, 5-(1-ethyl-1H-pyrazol-4-yl)-2-{5-[methyl(piperidin-4-yl)amino][1,3]thiazolo[5,4-d][1,3]thiazol-2-yl}pyridin-3-ol] | 1000 to 3000 |
| Cn1cc2cc(-c3nc4sc(C5CCNCC5)nc4s3)ccc2n1 [Compound 25, 2-methyl-5-[5-(piperidin-4-yl)[1,3]thiazolo[5,4-d][1,3]thiazol-2-yl]-2H-indazole] | 100 to 500 |
| [2H]C([2H])([2H])n1cc(-c2cnc(-c3nc4sc(N(C)C5CC(C)(C)NC(C)(C)C5)nc4s3)c(O)c2)cn1 [Compound 49, 5-[1-(^2H3)methyl-1H-pyrazol-4-yl]-2-{5-[methyl(2,2,6,6-tetramethylpiperidin-4-yl)amino][1,3]thiazolo[5,4-d][1,3]thiazol-2-yl}pyridin-3-ol] | ≤ 100 |
| CN1CCC(N(C)c2nn3cc(-c4cc(C#N)c5nn(C)cc5c4)nc3s2)CC1 [Compound 31, 2-methyl-5-{2-[methyl(1-methylpiperidin-4-yl)amino]imidazo[2,1-b][1,3,4]thiadiazol-6-yl}-2H-indazole-7-carbonitrile] | 3000 to 9000 |
| CC1CC(N(C)c2nc3sc(-c4cnc(-c5cn[nH]c5)cn4)nc3s2)CCN1C (stereo not drawn) [Compound 132, N-(1,2-dimethylpiperidin-4-yl)-N-methyl-5-[5-(1H-pyrazol-4-yl)pyrazin-2-yl][1,3]thiazolo[5,4-d][1,3]thiazol-2-amine] | 100 to 500 |
| CN1CCC(N(C)c2nc3sc(-c4ccc(-c5cn[nH]c5)cc4O)nc3s2)CC1 [Compound 24, 2-{5-[methyl(1-methylpiperidin-4-yl)amino][1,3]thiazolo[5,4-d][1,3]thiazol-2-yl}-5-(1H-pyrazol-4-yl)phenol] | ≤ 100 |
| CCN(c1nc2sc(-c3ncc(-c4cn[nH]c4)cc3O)nc2s1)C1CCN(C)CC1 [Compound 218, 2-{5-[ethyl(1-methylpiperidin-4-yl)amino][1,3]thiazolo[5,4-d][1,3]thiazol-2-yl}-5-(1H-pyrazol-4-yl)pyridin-3-ol] | ≤ 100 |
| CN(c1nc2sc(-c3ncc(-c4cn[nH]c4)cn3)nc2s1)[C@@H]1C[C@H]2CC[C@@H](C1)N2 [Compound 194, N-[(1R,3s,5S)-8-azabicyclo[3.2.1]octan-3-yl]-N-methyl-5-[5-(1H-pyrazol-4-yl)pyrimidin-2-yl][1,3]thiazolo[5,4-d][1,3]thiazol-2-amine] | ≤ 100 |
